Laboratory results: US6656911B2, “Serine protease inhibitors” (Cortech, Inc., priority 1994, dated 2003)

biological target: T1, human neutrophil elastase (HNE) (Homo sapiens, UniProt P08246); experiment: HNE Ki of CE compounds, tested as described in WO 96/16080; type: biochemical; details: read-out: HNE Ki
T1 sequence (P08246 30-267): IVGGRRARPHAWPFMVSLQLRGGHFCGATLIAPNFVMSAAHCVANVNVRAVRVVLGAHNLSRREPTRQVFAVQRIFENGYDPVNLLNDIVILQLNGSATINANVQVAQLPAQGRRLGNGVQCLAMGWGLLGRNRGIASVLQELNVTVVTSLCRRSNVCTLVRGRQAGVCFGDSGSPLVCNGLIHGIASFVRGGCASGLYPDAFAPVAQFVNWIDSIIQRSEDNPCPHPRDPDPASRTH

Row | Structure (SMILES) | Ki
1 | CC(C)[C@H](NC(=O)CN1C(=O)CN(Cc2ccccc2)C(=O)[C@@H]1Cc1ccccc1)C(=O)c1noc(CCN(C)C)n1 [CE2133, 4-[1-Benzyl-3-(S)-benzylpiperazine-2,5,-dione]-N-[1-(3-[5-(2-dimethylaminoethyl)-1,2,4-oxadiazolyl]carbonyl)-2-(S)-methylpropyl]acetamide] | 33000 nM
2 | Cc1cccc(Cc2nnc(C(=O)C(NC(=O)CN3C(=O)C[S+]([O-])C3Cc3ccccc3)C(C)C)o2)c1 [CE2136, 2-[(2-(R,S)-Benzyl-4-oxothiazolidin-3-yloxide]-N-[1-(2-[5-(3-methylbenzyl)-1,3,4-oxadiazolyl]carbonyl)-2-(R,S)-methylpropyl]acetamide] | 104 nM
3 | Cc1cccc(Cc2nnc(C(=O)[C@@H](NC(=O)Cn3c(=O)c4ccccc4n(C(=O)c4ccccc4)c3=O)C(C)C)o2)c1 [CE2140, (1-Benzoyl-3,8-quinazolinedione)-N-[1-(2-[5-(3-methylbenzyl)-1,3,4-oxadiazolyl]carbonyl)-2-(S)-methylpropyl]acetamide] | 204 nM
4 | CC(C)[C@H](NC(=O)CN1C(=O)CN(Cc2ccccc2)C(=O)[C@H]1Cc1ccccc1)C(=O)c1noc(Cc2cccc(C(F)(F)F)c2)n1 [CE2146, 4-[1-Benzyl-3-(R)-benzylpiperazine-2,5,-dione]-N-[1-(3-(5-(3-trifluoromethylbenzyl)-1,2,4-oxadiazolyl]carbonyl)-2-(S)-methylpropyl]acetamide] | 67 nM
5 | Cc1cccc(Cc2nnc(C(=O)[C@@H](NC(=O)CN3CC(=O)N(c4ccccc4)CC3=O)C(C)C)o2)c1 [CE2147, (1-Phenyl-3,6-piperazinedione)-N-[1-(2-[5-(3-methylbenzyl)-1,3,4-oxadiazolyl]carbonyl)-2-(S)-methylpropyl]acetamide] | 1600 nM
6 | Cc1cccc(Cc2nnc(C(=O)[C@@H](NC(=O)CN3C(=O)CNC(=O)C3Cc3ccncc3)C(C)C)o2)c1 (stereo partly drawn) [CE2159, 2-(R,S)-[6-(Methylene-4-pyridyl)piperazine-2,5-dione]-N-[1-(2-[5-(3-methylbenzyl)-1,3,4-oxadiazolyl]carbonyl)-2-(S)-methylpropyl]acetamide] | 52 nM
7 | CC(C)[C@H](NC(=O)CN1CCCC(NC(=O)OCc2ccccc2)C1=O)C(=O)c1noc(Cc2cccc(C(F)(F)F)c2)n1 (stereo partly drawn) [CE2160, 3-(R,S)-[(Benzyloxycarbonyl)amino-δ-lactam]-N-[1-(3-[5-(3-trifluoromethylbenzyl)-1,2,4-oxadiazolyl]carbonyl)-2-(S)-methylpropyl]acetamide] | 260 nM
8 | CC(C)[C@H](NC(=O)[C@@H]1CCCN1C(=O)[C@@H](NC(=O)c1cccnc1)C(C)C)C(=O)c1noc(Cc2cccc(C(F)(F)F)c2)n1 [CE2171, (3-Pyridylcarbonyl)-L-valyl-N-[1-(3-[5-(3-trifluoromethylbenzyl)-1,2,4-oxadiazolyl]carbonyl)-2-(S)-methylpropyl]-L-prolinamide] | 0.64 nM
9 | Cc1cccc(Cc2nnc(C(=O)[C@@H](NC(=O)Cn3c(=O)[nH]n(Cc4ccccc4)c3=O)C(C)C)o2)c1 [CE2176, 1-Benzyl-1,2,4-triazolidine-3,5-dione-N-[1-(2-[5-(3-methylbenzyl)-1,3,4-oxadiazolyl]carbonyl)-2-(S)-methylpropyl]acetamide] | 52 nM

Continued by falling Ki, values first:

Row | Ki | Structure (SMILES)
10 | 558 nM | CC(C)C(NC(=O)CN1C(=O)C[S+]([O-])C1Cc1ccccc1)C(=O)c1noc(Cc2cccc(C(F)(F)F)c2)n1 [CE2137, 2-[2-(R,S)-Benzyl-4-oxothiazolidin-3-yloxide]-N-[1-(3-[5-(3-trifluoromethylbenzyl)-1,2,4-oxadiazolyl]carbonyl)-2-(R,S)-methylpropyl]acetamide]
11 | 300 nM | CC(C)[C@H](NC(=O)CN1C(=O)CN(Cc2ccccc2)C(=O)[C@@H]1Cc1ccccc1)C(=O)c1noc(Cc2cccc(C(F)(F)F)c2)n1 [CE2129, 4-[1-Benzyl-3-(S)-benzylpiperazine-2,5,-dione]-N-[1-(3-[5-(3-trifluoromethylbenzyl)-1,2,4-oxadiazolyl]carbonyl)-2-(S)-methylpropyl]acetamide]
12 | 297 nM | Cc1cccc(Cc2nnc(C(=O)[C@@H](NC(=O)OCc3ccccc3)C(C)C)o2)c1 [CE2170]
13 | 294 nM | Cc1cccc(Cc2nnc(C(=O)[C@@H](NC(=O)CN3CC(=O)N(C(=O)c4ccccc4)CC3=O)C(C)C)o2)c1 [CE2138, (1-Benzoyl-3,6-piperazinedione)-N-[1-(2-[5-(3-S methylbenzyl)-1,3,4-oxadiazolyl]carbonyl)-2-(S)-methylpropyl]acetamide]
14 | 145 nM | Cc1cccc(Cc2nnc(C(=O)[C@@H](NC(=O)Cn3c(=O)[nH]n(-c4ccccc4)c3=O)C(C)C)o2)c1 [CE2166, 1-Phenyl-1,2,4-triazolidine-3,5-dione-N-[1-(2-[5-(3-methylbenzyl)-1,3,4-oxadiazolyl]carbonyl)-2-(S)-methylpropyl]acetamide]
15 | 64 nM | Cc1cccc(Cc2nnc(C(=O)[C@@H](NC(=O)CN3C(=O)CN(Cc4ccccc4)C(=O)[C@@H]3Cc3ccccc3)C(C)C)o2)c1 [CE2128, 4-[1-Benzyl-3-(S)-benzylpiperazine-2,5,-dione]-N-[1-(2-(5-(3-methylbenzyl)-1,3,4-oxadiazolyl]carbonyl)-2-(S)-methylpropyl]acetamide]
16 | 57 nM | CC(C)[C@H](NC(=O)CN1C(=O)N[C@@H](Cc2ccccc2)C1=O)C(=O)c1noc(Cc2cccc(C(F)(F)F)c2)n1 [CE2155, 5-(S)-Benzyl-2,4-imidazolidinedione-N-[1-(3-[5-(3-trifluoromethylbenzyl)-1,2,4-oxadiazolyl]carbonyl)-2-(S)-methylpropyl]acetamide]
17 | 11.5 nM | CC(=O)N1c2ccccc2C[C@H]1C(=O)N[C@H](C(=O)c1noc(Cc2cccc(C(F)(F)F)c2)n1)C(C)C [CE2143, Acetyl-2-L-(2,3-dihydro-1H-indole)-N-[1-(3-[5(3-trifluoromethylbenzyl)-1,2,4-oxadiazolyl]carbonyl)-2-(S)-methylpropyl]amide]
18 | 9.3 nM | Cc1cccc(Cc2nnc(C(=O)[C@@H](NC(=O)CN3C(=O)CN(Cc4ccccc4)C(=O)[C@H]3Cc3ccccc3)C(C)C)o2)c1 [CE2144, 4-[1-Benzyl-3-(R)-benzyl-piperazine-2,5,-dione]-N-[1-([5-(3-methylbenzyl)-1,3,4-oxadiazolyl]carbonyl)-2-(S)-methylpropyl]acetamide]
19 | 8.7 nM | Cc1cccc(Cc2nnc(C(=O)[C@@H](NC(=O)CN3C(=O)N[C@H](Cc4ccccc4)C3=O)C(C)C)o2)c1 [CE2142, 5-(R)-Benzyl-2,4-imidazolidinedione-N-[1-(2-[5-(3-methylbenzyl)-1,3,4-oxadiazolyl]carbonyl)-2-(S)-methylpropyl]acetamide]
20 | 0.15 nM | Cc1cccc(Cc2nnc(C(=O)[C@@H](NC(=O)[C@@H]3CCCN3C(=O)[C@@H](NS(=O)(=O)c3ccccc3)C(C)C)C(C)C)o2)c1 [CE2168, Phenylsulfonyl-L-valyl-N-[1-(2-[5-(3-methylbenzyl)-1,3,4-oxadiazolyl]carbonyl)-2-(S)-methylpropyl]-L-prolinamide]
21 | 0.038 nM | Cc1cccc(Cc2nnc(C(=O)[C@@H](NC(=O)[C@@H]3Cc4ccccc4N3C(=O)[C@@H](NC(=O)OCc3ccccc3)C(C)C)C(C)C)o2)c1 [CE2145, (Benzyloxycarbonyl)-L-valyl-2-L-(2,3-dihydro-1H-indole)-N-[1-(2-[5-(3-methylbenzyl)-1,3,4-oxadiazolyl]carbonyl)-2-(S)-methylpropyl]amide]
